# In PMC9905048 (Bioorganic & Medicinal Chemistry Letters, 2023):
# Where two headings read alike, the source gives them in different places.
# What was measured:
# [1] = system: cells of the SARS-CoV-2, Flu A/B and DENV-2 assays
# [2] = system: Flu B/Lee/40 (Lee); assay: Cell-based antiviral assay against Flu B in MDCK cells; parameters: species or system influenza B virus
# [3] = system: SARS-CoV-2 (hCoV-19/Korea/KCDC-06/2020); assay: Cell-based antiviral assay against SARS-CoV-2 in Vero cells; conditions: ratio of EC50, in vitro
# [4] = system: DENV-2 replicon BHK-21 (DENV2-BHK) cells; type: cell-based
# [5] = in vitro, summary for SARS-CoV-2, Flu A/B and DENV-2 assays
molecule,measurement,setting,value
"Cl.NNc1ccn([C@@H]2O[C@H](CO)[C@@H](O)[C@H]2O)c(=O)n1 [compound 9, N ^4-aminocytidine]",cell cytotoxicity,"[1]; African green monkey (Vero), hamster (BHK-21), dog (MDCK)",> 100 µM
"CC(C)C(=O)ONc1ccn([C@@H]2O[C@H](CO)[C@@H](O)[C@H]2O)c(=O)n1 [8a, β-D-N^4-O-isobutyrylcytidine]",potency (EC50) against Flu B compared with T-705 and amantadine (AMT),[2],about 2 fold
same,potency against SARS-CoV-2 compared to NHC (1),[3],> 5 fold
same,potency (EC50) against DENV-2 compared with T-705 and amantadine (AMT),[4],about 2 fold
"CC(C)(C)OC(=O)NNc1ccn([C@@H]2O[C@H](CO)[C@@H](O)[C@H]2O)c(=O)n1 [8b, C4-Boc-hyrazinyl cytidine]",cell cytotoxicity,[1]; [5],> 100 µM
C4-2‑hydroxylethyl cytidine [8c],cell cytotoxicity,[1]; [5],> 100 µM
